Reference: the NIST ThermoML archive (doi:10.1021/je300696c)
Numbers after ± are expanded uncertainties.

How the values were obtained:
[1] = Liquid; for mass density: 293.15 K, 101.33 kPa, Vibrating tube method
[2] = refractive index (Na D-line) (dimensionless); conditions: 293.15 K; 101.33 kPa; Liquid; Standard Abbe refractometry

mass density [1] [kg/m3] | vapor or sublimation pressure ([1]; 354.3 K, Ebulliometric method (Recirculating still)) [kPa] | refractive index [2] | vapor or sublimation pressure ([1]; 350.21 K, Closed cell (Static) method) [kPa] | vapor or sublimation pressure ([1]; 447.7 K, Ebulliometric method (Recirculating still)) [kPa] | vapor or sublimation pressure ([1]; 447.74 K, Ebulliometric method (Recirculating still)) [kPa] | vapor or sublimation pressure ([1]; 336.48 K, Closed cell (Static) method) [kPa] | vapor or sublimation pressure ([1]; 369.09 K, Closed cell (Static) method) [kPa] | Compound
788.5 ± 0.3 | 96.5 ± 4.8 | 1.3878 ± 0.0008 | – | – | – | – | – | CC(C)(C)O [2-methylpropan-2-ol]
788.9 ± 0.3 | – | 1.3609 ± 0.0007 | 96.5 ± 4.8 | – | – | – | – | CCO [ethanol]
821.8 ± 0.3 | – | 1.4227 ± 0.001 | – | 96.5 ± 4.8 | 96.5 ± 4.8 | – | – | CCCCCCCO [heptan-1-ol]
791.2 ± 0.3 | – | 1.3285 ± 0.0007 | – | – | – | 96.5 ± 4.8 | – | CO [methanol]
803.4 ± 0.3 | – | 1.3851 ± 0.0007 | – | – | – | – | 96.5 ± 4.8 | CCCO [propan-1-ol]
